**Q.** For hyaluronic acid [HA], which “cytocompatibility (cell enumeration, metabolism, toxicity)” value (RAW 264.7 macrophages) is on record?
**A.** The value was “cytocompatible”.

**Q.** What about the “cytocompatibility (cell enumeration, metabolism, toxicity)” value (NIH-3T3 fibroblasts) of the same compound?
**A.** The value was “cytocompatible”.

**Q.** `O.O.O.O.O.O.[Cl-].[Cl-].[Co+2]` [CoCl2.6H2O] was tested. Which maximal inhibitory concentration (RAW 264.7 macrophages) did it give?
**A.** Its maximal inhibitory concentration is roughly 50 µg/mL.

**Q.** And the maximal inhibitory concentration (NIH-3T3 fibroblasts)?
**A.** Its maximal inhibitory concentration is roughly 25 µg/mL.

Source: US11479617B2, “Chelator-functionalized glycosaminoglycans” (priority 2018, dated 2022)
